According to EPA's CvTdb concentration-time database:

Experiments:
Assay in all cases: concentration in plasma after dosing
Rat [1] = conditions: 5 h; dosed: Formamide; 10 mg/kg; iv; Male; F344
Rat [2] = conditions: 2 h; dosed: Formamide; 10 mg/kg; iv; Male; F344
Rat [3] = conditions: dosed: Formamide, 10 mg/kg, iv, Male, F344
Rat [4] = conditions: dosed: Formamide, 30 mg/kg, iv, Female, F344
Rat [5] = conditions: dosed: Formamide, 10 mg/kg, iv, Male, F344; remark: listed apart in the source
Rat [6] = conditions: dosed: Formamide, 10 mg/kg, iv, Male, F344; remark: listed apart in the source
Rat [7] = conditions: 0.5 h; dosed: Formamide; 30 mg/kg; iv; Female; F344
Rat [8] = conditions: dosed: Formamide, 10 mg/kg, iv, Male, F344; remark: listed apart in the source
Rat [9] = conditions: 0.5 h; dosed: Formamide; 10 mg/kg; iv; Male; F344
Rat [10] = conditions: dosed: Formamide, 30 mg/kg, iv, Female, F344; remark: listed apart in the source
Rat [11] = conditions: dosed: Formamide, 10 mg/kg, iv, Male, F344; remark: listed apart in the source
Rat [12] = conditions: dosed: Formamide, iv
Rat [13] = conditions: dosed: Formamide, 30 mg/kg, iv, Female, F344; remark: listed apart in the source
Rat [14] = conditions: 2 h; dosed: Formamide; 10 mg/kg; iv; Male; F344; remark: listed apart in the source
Rat [15] = conditions: dosed: Formamide, 10 mg/kg, iv, Female, F344

NC=O [Formamide]
Conditions	concentration in plasma [ng/mL]
Rat [1]	13700
Rat [2]	12800
Rat [7]	39700
Rat [9]	11100
Rat [14]	13000

Conditions	concentration in plasma [ng/mL]
Rat [3], 1 h	13500
Rat [3], 3 h	13300
Rat [4], 0.25 h	16100
Rat [4], 24 h	10100
Rat [5], 5 min	2100
Rat [5], 36 h	2100
Rat [6], 10 min	15400
Rat [6], 18 h	4700
Rat [8], 8 h	8600
Rat [8], 12 h	5100
Rat [10], 8 h	27500
Rat [10], 12 h	22800
Rat [11], 8 h	5700
Rat [11], 12 h	6800
Rat [13], 5 min	43900
Rat [13], 36 h	2500
Rat [15], 10 min	8500
Rat [15], 18 h	2900

concentration in plasma [ng/mL], Rat [12]
Conditions	Female	Male
0.25 h, 10 mg/kg, F344	–	7100
0.25 h, 10 mg/kg, Harlan Sprague-Dawley	13600	–
0.25 h, 30 mg/kg, F344	37100	–
0.5 h, 10 mg/kg, F344	–	14100
0.5 h, 10 mg/kg, Harlan Sprague-Dawley	9300	–
0.5 h, 30 mg/kg, F344	28200	–
1 h, 10 mg/kg, F344	–	14700
2 h, 10 mg/kg, F344	–	12500
3 h, 10 mg/kg, F344	–	13700
5 h, 10 mg/kg, F344	–	14200
5 h, 10 mg/kg, Harlan Sprague-Dawley	13000	–
5 min, 10 mg/kg, F344	–	11800
5 min, 30 mg/kg, F344	46500	–
8 h, 10 mg/kg, F344	–	8200
8 h, 30 mg/kg, F344	25000	–
10 min, 10 mg/kg, F344	3500	14200
12 h, 10 mg/kg, F344	–	6300
12 h, 30 mg/kg, F344	21400	–
18 h, 10 mg/kg, F344	3400	4000
24 h, 10 mg/kg, F344	–	3800
24 h, 10 mg/kg, Harlan Sprague-Dawley	2300	–
24 h, 30 mg/kg, F344	7900	–
36 h, 10 mg/kg, F344	–	2300
36 h, 30 mg/kg, F344	4300	–
48 h, 30 mg/kg, F344	1200	–
